The test can be described thus: Inhibition of pTACE.

Molecules are shown by their SMILES.

`Cc1cc(COc2ccc(C(=O)NCc3n[nH]c(=O)[nH]3)cc2)c2ccccc2n1` [4-((2-methylquinolin-4-yl)methoxy)-N-((5-oxo-4,5-dihydro-1H-1,2,4-triazol-3-yl)methyl)benzamide]: the IC50 (in general, the point on the concentration scale where inhibition reaches its midpoint) is greater than 1000 nM.

With `Cc1cc(COc2ccc(S(=O)(=O)NCC3(C)NC(=O)NC3=O)cc2)c2ccccc2n1` (stereo not drawn) [N-((4-methyl-2,5-dioxoimidazolidin-4-yl)methyl)-4-((2-methylquinolin-4-yl)methoxy)benzenesulfonamide], 37 nM corresponded to half-maximal inhibition (IC50). In turn, `Cc1cc(COc2ccc(C(=O)NCC3(C)NC(=O)NC3=O)cc2)c2ccccc2n1` (stereo not drawn) [N-((4-methyl-2,5-dioxoimidazolidin-4-yl)methyl)-4-((2-methylquinolin-4-yl)methoxy)benzamide] yielded an IC50 of 29 nM. The compound `Cc1cc(COc2ccc(C(=O)Nc3ccccc3Cc3n[nH]c(=O)[nH]3)cc2)c2ccccc2n1` [4-((2-methylquinolin-4-yl)methoxy)-N-(2-((5-oxo-4,5-dihydro-1H-1,2,4-triazol-3-yl)methyl)phenyl)benzamide] displayed an IC50 of 34 nM. Compound `Cc1cc(COc2ccc(C(=O)Nc3ccccc3C(=O)c3c[nH]c(=O)[nH]3)cc2)c2ccccc2n1` [4-((2-methylquinolin-4-yl)methoxy)-N-(2-(2-oxo-2,3-dihydro-1H-imidazole-5-carbonyl)phenyl)benzamide] displayed an IC50 of 9 nM. Take `Cc1cc(COc2ccc(C(=O)Nc3ccccc3Cc3c[nH]c(=O)[nH]3)cc2)c2ccccc2n1` [4-((2-methylquinolin-4-yl)methoxy)-N-(2-((2-oxo-2,3-dihydro-1H-imidazol-5-yl)methyl)phenyl)benzamide]: half-maximal inhibition (IC50) required 1600 nM.

In turn, `Cc1cc(COc2ccc(C(=O)Nc3ccccc3-c3[nH]c(=O)[nH]c3O)cc2)c2ccccc2n1` [N-(2-(2,5-dioxoimidazolidin-4-yl)phenyl)-4-((2-methylquinolin-4-yl)methoxy)benzamide] showed an IC50 of 14 nM.

Consider `Cc1cc(COc2ccc(S(=O)(=O)NCc3n[nH]c(=O)[nH]3)cc2)c2ccccc2n1` [4-((2-methylquinolin-4-yl)methoxy)-N-((5-oxo-4,5-dihydro-1H-1,2,4-triazol-3-yl)methyl)benzenesulfonamide], for which half-maximal inhibition (IC50) required 439 nM.

The values are drawn from BindingDB's records for doi:10.1016/j.bmcl.2007.02.076 (Bristol-Myers Squibb Pharmaceutical Research Institute, 2007).
